Reference: US20040082623A1, “Fmoc-l-leucine and derivatives thereof as ppar-gamma agonists” (priority 2003, published 2004)

How the values were obtained:
[1] = molecular target: T1, hPPARγ LBD (Homo sapiens, UniProt P37231); assay: ESI-mass spectrometry of ligand binding to PPARγ LBD
T1 construct: Human PPARγ (aa. 203 to 477 of PPARγ) was subcloned into the pET15b; His-tag (N); made in house
T1 sequence (P37231 203-477 isoform P37231-2): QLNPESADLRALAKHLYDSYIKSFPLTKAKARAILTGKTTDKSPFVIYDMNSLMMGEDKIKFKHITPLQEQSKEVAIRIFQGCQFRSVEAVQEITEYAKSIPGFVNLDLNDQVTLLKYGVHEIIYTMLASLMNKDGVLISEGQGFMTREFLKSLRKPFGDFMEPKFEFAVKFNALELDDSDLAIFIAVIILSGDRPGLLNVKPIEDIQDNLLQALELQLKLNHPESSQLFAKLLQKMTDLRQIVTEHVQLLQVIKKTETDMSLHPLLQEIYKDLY
From the text: FIG. 5: Two molecules of F-L-Leu bind to a single PPARγ molecule. ESI-mass spectrometry analysis.
The p300Nt-GST, fusion protein was generated by cloning the N-terminal part of the p300 protein (a.a. 2 to 516) downstream of the glutathione-S-transferase (GST) protein in the pGex-T1 vector (Pharmacia, Orsay, France). The fusion proteins were then expressed in Escherichia coli and purified on a glutathione affinity matrix (Pharmacia). Human PPARγ (aa. 203 to 477 of PPARγ) was subcloned into the pET15b (Novagen, Madison, Wis.) expression vector. The his-tagPPARγ2DE203-477 proteins were produced as follow. The protein was purified using a metal chelate affinity column with an affinity column Co^2+ coupled agarose (High Trap chelatin, Pharmacia). The protein was eluted with 20 mM Tris-HCl, […], 130 mM imidazole and 1-2 propanediol 2.5% (pH 8.5). A second purification step was made by gel filtration (Superdex 200 16/60, Pharmacia). The protein was eluted with 20 mM Tris-HCl, 100 mM NaCl, 5 mM DTT and 1-2 propanediol 2,5% (pH 8.5). […]
Electrospray ionization (ESI) mass spectrometry of hPPARγ LBD (amino acid 203 t ? 477) was used to identify the specific binding of F-L-Leu with PPARγ (FIG. 5). […] The mass of the receptor wa ? determined after incubation by ESI-mass spectrometry.

[2] = test system: TNBS-treated Balb/c mice; assay: TNBS-induced colitis in Balb/c mice; assay type: in vivo; details: 50 mg/kg/day
Procedure: FIG. 9: F-L-Leu protects against colon inflammation in TNBS-treated Balb/c Mice. A: Ameho histologic scores (left panel) and survival rate (right panel) in TNBS-treated mice injected either with DMSO or F-L-Leu (50 mg/kg/day). B: TNFα and IL-1β mRNA levels in the colon of TNBS-treated mice injected with DMSO or F-L-Leu (50 mg/kg/day). Results are expressed as mean±SEM.
RNA was isolated from 3T3-L1 cells by the acid guanidinium ? thiocyanate/phenol/chloroform method (Chomczynski and Sacchi, 1987). Northern blot analysis of total cellular RNA was performed as described (Auwerx et al., 1989) ? Lipoprotein lipase (LPL), aP2 and 36B4 were used as probes (Graves et al., 1992 ? Laborda, 1991; Lefebvre et al., 1997). For RT-competitive PCR, total RNA (5-10 μg ? was reverse transcribed into complementary DNA (cDNA) (Desreumaux et al., 1999 ? Fajas et al., 1997). The RT reaction mixture was amplified by PCR using sense an ? antisense primers specific for β-actin, TNFα and IL-1β. The samples were subjected t ? 40 PCR cycles, consisting of denaturation for 1 min at 94° C., primer annealing for ? min at 52-58° C., and primer extension for 1.5 min at 72° C. using a Gene Amp PCR ? System 9700 (Perkin-Elner Corporation, Foster City, Calif.). The quantity of mRNA was expressed as the number of TNFα or IL-1β cDNA per β-actin cDNA molecules.
Male Balb/c mice (8 per group) were used for the colitis studies (Jackson laboratories, Bar Harbor, Me.). Colitis was induced by administration of 40 μl of a solution of TNBS (150 mg/kg, Fluka, Saint Quentin Fallavier, France) dissolved in NaCl 0.9% and mixed with an equal volume of ethanol (50% ethanol). This solution was administered intrarectally via a 3.5 F catheter (Ref EO 3416-1, Biotrol, Chelles, France) inserted 4 cm proximal to the anus in anesthesized mice [Xylasine (50 mg/kg of Rompun® 2%, Bayer Pharma, Puteaux, France) and Ketamine (50 mg/kg of Imalgene® 1000, Rhône Mérieux, France)]. Animals were sacrified by cervical dislocation under ether anesthesia two days after TNBS administration. The colon was quickly removed, opened, washed. A 2 cm colonic specimen located precisely 2 cm above the anal canal was dissected systematically in 4 parts. One part was fixed overnight in 4% paraformaldehyde acid at 4° C., dehydrated in alcohol and embedded in paraffin. Sections (5 μm) were then deparaffined with xylene and rehydrated by ethanol treatment. Stained sections with haematoxylin-eosin were examined blindly by a pathologist and scored according to the Ameho criteria (Ameho et al., 1997). The other parts of the colon were used for RNA isolation for the quantification of TNFα and IL1β mRNA expression.

`CC(C)CC(NC(=O)OCC1c2ccccc2-c2ccccc21)C(=O)O` [F-L-Leu, N-(9-fluroroenylmethyloxycarbonyl)-L-Leucine] was tested, and the PPARγ species detected ([1]; 1 equivalent of ligand per equivalent of PPARγ: unliganded, 1:1 and 1:2 complexes) was “three populations of PPARγ”, the “number of ligand molecules bound per PPARγ LBD” value ([1]; 8 equivalents of ligand per 1 equivalent of PPARγ, only complex detected) was 2 and the Ameho histologic score [2] was “reduced significantly”. For the same compound, the “IL-1β mRNA levels in colon” value [2] was “significant decrease”, the “TNFα mRNA levels in colon” value [2] was “significant decrease” and the survival rate ([2]; 4 days, two days after TNBS, control 76%) was 100%.
